From patent US6716878B1, “Antimicrobial agents” (Vernalis (Oxford) Limited, priority 1999, dated 2004)
In brackets after ≈: the same amount, converted by molar mass.

How the values were obtained:
E. coli strain DH5α = assay: Minimal inhibitory concentration (MIC) against E. coli, two fold serial dilutions in 2xYT broth; format: cell-based; conditions: Escherichia coli; E. coli strain DH5α; 2xYT broth, 37° C., 18 hours; lowest drug concentration that inhibited visible growth; read-out: MIC (E. coli)
Experimental: (§1) Where MIC values are quoted for the compounds of the examples, those results were obtained by the method described in the Biological Example.
(§2) Minimal inhibitory concentrations (MIC) of inhibitors against E. coli strain DH5α (Genotype; F-φ80d/acZΔM 15Δ(lacZYA-argF)U 169 deoR recA1 endA1 hsdR17(rk^−, mk^+)phoA supE44λ^−thi-1 gyrA96 re/A1) obtained from GibcoBRL Life Technologies, or Staphylococcus capitis (American Type Culture Collection number 35661) were determined as follows. Stock solutions of each test compound were prepared by dissolution of the compound in dimethylsulfoxide at 10 mM. For the determination of the minimal inhibitory concentration, two fold serial dilutions were prepared in 2×YT broth (typtone 16 g/l, yeast extract 10 g/l, sodium chloride 5 g/l obtained from BIO 101 Inc, 1070 Joshua Way, Vista, Calif. 92083, USA) to yield 0.05 ml compound-containing medium per well. Inocula were prepared from cultures grown overnight in 2×YT broth at 37° C. Cell densities were adjusted to absorbance at 660 nm (a660)=0.1; the optical density-standardised preparations were diluted 1:1000 in 2×YT broth; and each well inoculated with 0.05 ml of the diluted bacteria. Microtiter plates were incubated at 37° C. for 18 hours in a humidified incubator. The MIC (μM) was recorded as the lowest drug concentration that inhibited visible growth.

[1] = system: Staphylococcus capitis (American Type Culture Collection number 35661); assay: Minimal inhibitory concentration (MIC) against Staphylococcus capitis, two fold serial dilutions in 2xYT broth; format: cell-based; conditions: ATCC35661, Staphylococcus capitis ATCC 35661, 37° C., 18 hours, lowest drug concentration that inhibited visible growth, read-out: MIC (S. capitis)
Experimental: as §1, §2

CCCC[C@H](CN(O)C=O)C(=O)N[C@H](C(=O)c1ccc(NCCC)cc1)C(C)(C)C [Example 31, 2(R)-[(N-Formyl-N-hydroxyamino)-methyl]-hexanoic Acid-(2′,2′-dimethyl-1′(S)-(4-propylaminobenzoyl)-propyl)amide]
MIC (E. coli strain DH5α): 12.5 µM (≈ 5.24 µg/mL)
MIC [1]: 3.1 µM (≈ 1.3 µg/mL)
